Assay results published in patent publication US8937183B2, “Detection of hydrogen peroxide” (Promega Corporation, priority 2011, dated 2015).

Legend:
[1] = system: Jurkat cells; assay: Detection of reactive oxygen generation in cells treated with menadione or 4-aminobiphenyl, Jurkat; type: cell-based; details: for averaged bioluminescence: 60 minutes 37° C.
Procedure: (§1) In this example, various compounds shown to react with hydrogen peroxide were incubated with cells treated with menadione and 4-aminobiphenyl, two compounds that can generate reactive oxygen species (ROS). Menadione causes the direct production of reactive oxygen within the cell and is a very strong inducer of a ROS effect (Sun, J S et. al. Cell Mol Life Sci (1997) vol 53 pp 967-76). 4-aminobiphenyl is believed to require metabolic conversion to a quinine-like structure before being able to induce the formation of a ROS (Makena, P and Chung, K T. Environ. Mol. Mutagen. (2007), vol 48, pp 404-413).
(§2) A 40 mM solution of 4-aminobiphenyl (Sigma A2898-1g) was made by dissolving 2.5 mg in 375 μl of DMSO (Fluka) to create a 40 mM solution. 50 μl of 4 mg/ml PBI 4458 in DMSO was diluted to 1 ml with HBSS buffer (Invitrogen), and 100 μl added to wells A1 and A2 of a microtiter plate. A 10 μl sample of 40 mM 4-aminobiphenyl was mixed with 190 μl of the remaining PBI 4458 in HBSS, and 60 μl added to wells B1 and B2 and 30 μl to wells C1 and C2. A 10 μl sample of 40 mM menadione in DMSO was mixed with 190 μl of the remaining PBI 4458 in HBSS, and 60 μl added to wells D1 and D2 and 30 μl to E1 and E2. The volume in wells B1 to E2 was then adjusted to 100 μl by addition of remaining PBI 4458 in HBSS.
(§3) 50 μl of 4 mg/ml PBI 4480 in DMSO was diluted to 1 ml with HBSS buffer, and 100 μl placed in wells A3 and A4 of the microtiter plate. A 10 μl sample of 40 mM 4 aminobiphenyl was mixed with 190 μl of the remaining PBI 4480 in HBSS, and 60 μl added to wells B3 and B4 and 30 μl to wells C3 and C4. A 10 μl sample of 40 mM menadione in DMSO was mixed with 190 μl of the remaining PBI 4480 in HBSS, and 60 μl added to wells D3 and D4 and 30 μl added to wells E3 and E4. The volume in wells B3 to E4 was then adjusted to 100 μl by addition of left over PBI 4480 in HBSS.
(§4) 50 μl of 4 mg/ml PBI 3048 in DMSO was diluted to 1 ml with HBSS, and 100 μl added to wells A5 and A6 of the microtiter plate. A 10 μl sample of 40 mM 4 aminobiphenyl was mixed with 190 μl of the remaining PBI 3048 in HBSS, and 60 μl added to wells B5 and B6 and 30 μl added to wells C5 and C6. A 10 μl sample of 40 mM menadione in DMSO was mixed with 190 μl of the remaining PBI 3048 in HBSS, and 60 μl added to wells D5 and D6 and 30 μl added to wells E5 and E6. The volume in wells B5 to E6 was then adjusted to 100 μl by addition of the remaining PBI 3048 in HBSS.
(§5) Two cell culture plates were seeded with cells resuspended in HBSS. One plate contained 20,000 Jurkat cells/well in wells A1-H6. The other plate contained 20,000 HepG2 cells/well in wells A1-H6. Both plates were incubated overnight in DMEM with 10% fetal bovine serum (FBS). The media from the HepG2 cells was removed, discarded, and replaced with 50 μl of HBSS. A 50 μl sample of wells A1-H6 from the plate with the various PBI compounds was transferred to the corresponding wells in the two cell culture plates, and incubated for 60 minutes in a 37° C., 5% CO2 incubator.
(§6) 50 μl of LDR (Example 23) and 25 μl of 1 mM D-cysteine in 100 mM HEPES buffer, pH 7.5 was added to all wells of a new luminometer plate. After incubation, a 25 μl sample of wells A1-H6 containing Jurkat cells was added to wells A1-H6 of the new luminometer plate, and a 25 μl sample of wells A1-H6 containing HepG2 cells was added to wells A7-H12 of the new luminometer plate. The plate was incubated at room temperature for 15 minutes, and bioluminescence detected on a GloMax® luminometer.
(§7) The bioluminescence from the duplicate samples was averaged and compared to the values of the cells in A row (Table 4).

[2] = system: HepG2 cells; assay: Detection of reactive oxygen generation in cells treated with menadione or 4-aminobiphenyl, HepG2; type: cell-based; details: for response of signal to menadione or 4-aminobiphenyl (in words): HepG2; for averaged bioluminescence: 60 minutes 37° C.
Procedure: as §1, §2, §3, §4, §5, §6, §7

Structure (SMILES)	response of signal to menadione or 4-aminobiphenyl (in words) [1]	averaged bioluminescence ([1]; 300 μM 4ABP)	averaged bioluminescence ([1]; 300 μM Menadione)	averaged bioluminescence ([1]; 600 μM 4ABP)	averaged bioluminescence ([1]; 600 μM Menadione)	averaged bioluminescence ([1]; No Effector)	response of signal to menadione or 4-aminobiphenyl (in words) [2]	averaged bioluminescence ([2]; HepG2, 300 μM 4ABP)	averaged bioluminescence ([2]; HepG2, 300 μM Menadione)	averaged bioluminescence ([2]; HepG2, 600 μM 4ABP)	averaged bioluminescence ([2]; HepG2, 600 μM Menadione)	averaged bioluminescence ([2]; HepG2, No Effector)
CC1(C)OB(c2ccc(COc3ccc4nc(C#N)sc4c3)c3ccccc23)OC1(C)C [PBI 4480, 6-((4-(4,4,5,5-tetramethyl-1,3,2-dioxaborolan-2-yl)naphthalen-1-yl)methoxy)benzo[d]thiazole-2-carbonitrile]	do not show as clear of a response	29,810	29,806	29,277	27,535	34,646	do not show as clear of a response	20,574	20,788	21,023	20,509	19,627
CC1(C)OB(/C=C/COc2ccc3nc(C#N)sc3c2)OC1(C)C [PBI 4458, (E)-6-((3-(4,4,5,5-tetramethyl-1,3,2-dioxaborolan-2-yl)allyl)oxy)-benzo[d]thiazole-2-carbonitrile]	above those for the cells that were not given any effector	213,059	742,717	195,096	895,269	174,206	above those for the cells that were not given any effector	163,031	622,230	169,952	728,404	117,111
O=C(O)C1CSC(c2nc3ccc(OCc4ccc(B(O)O)cc4)cc3s2)=N1 (stereo not drawn) [PBI 3048]	do not show as clear of a response	363,182	434,344	366,188	403,013	413,753	do not show as clear of a response	364,353	426,802	383,471	408,177	407,917
